Measured values: US20250057970A1, “TROP2 TARGETING ANTIBODY-DRUG CONJUGATE, AND PREPARATION METHOD AND USE THEREFOR” (priority 2020, published 2025)
Where two headings read alike, the source gives them in different places. Numbered stars: 1 amine (or outer) side, 2 acyl side, 3 side chain; on linkers, the order of the positions; unused ones are H or OH. Square brackets hold non-standard residues; d marks the D form. Peptide text beside a SMILES is read from it. * marks the point of attachment. Exatecan = CC[C@@]1(O)C(=O)OCc2c1cc1n(c2=O)Cc2c-1nc1cc(F)c(C)c3c1c2[C@@H](N*)CC3; Hexanoyl(6-maleimido) = O=C1C=CC(=O)N1CCCCCC(=O)*; NHCH2OCH2CO = O=C(COCN[*:1])[*:2]

Experiments:
[1] = molecular target: cathepsin B (Homo sapiens, UniProt P07858); details: for speed of enzyme digestion: pH range 5.0 to 7.0
Text: Samples were taken at different time points and entered into a high-performance liquid chromatography-mass spectrometry instrument. The external standard method (with DXD as the external standard) was used to determine the release percentage of the drug.

[2] = molecular target: T1, Tumor-associated calcium signal transducer 2 (UniProt P09758 27-323, limits assumed); test: cell-based or functional assay
T1 sequence (looked up): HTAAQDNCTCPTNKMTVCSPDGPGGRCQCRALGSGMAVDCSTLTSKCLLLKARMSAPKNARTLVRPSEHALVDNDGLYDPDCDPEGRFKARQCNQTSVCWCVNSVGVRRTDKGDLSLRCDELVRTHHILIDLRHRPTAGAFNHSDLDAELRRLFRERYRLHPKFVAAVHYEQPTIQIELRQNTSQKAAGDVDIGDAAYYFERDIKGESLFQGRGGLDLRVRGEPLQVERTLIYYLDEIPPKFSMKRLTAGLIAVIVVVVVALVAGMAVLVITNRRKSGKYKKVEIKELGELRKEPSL

CC[C@@]1(O)C(=O)OCc2c1cc1n(c2=O)Cc2c-1nc1cc(F)c(C)c3c1c2[C@@H](NC(=O)COCNC(=O)CNC(=O)[C@H](Cc1ccccc1)NC(=O)CNC(=O)CNC(=O)CCCCCN1C(=O)C=CC1=O)CC3 [GGFG-Dxd, reference compound] ({Hexanoyl(6-maleimido)}-GGFG[NHCH2OCH2CO]-Exatecan)
speed of enzyme digestion [1]: slow speed of enzyme digestion

CC[C@@]1(O)C(=O)OCc2c1cc1n(c2=O)Cc2c-1nc1cc(F)c(C)c3c1c2[C@@H](NC(=O)COCN(CCS(C)(=O)=O)C(=O)OCc1ccc(NC(=O)[C@H](C)NC(=O)[C@@H](NC(=O)CCCCCN2C(=O)C=CC2=O)C(C)C)cc1)CC3 [LE14]
Percentage of drug release in the sample ([1]; pH 5.0, 0 h): 13.82%
Percentage of drug release in the sample ([1]; pH 5.0, 1 h): 96.0%
Percentage of drug release in the sample ([1]; pH 5.0, 2 h): 98.35%
Percentage of drug release in the sample ([1]; pH 5.0, 3 h): 99.12%
Percentage of drug release in the sample ([1]; pH 5.0, 4 h): 99.21%
Percentage of drug release in the sample ([1]; pH 5.0, 5 h): 99.45%
Percentage of drug release in the sample ([1]; pH 5.0, 6 h): 98.23%
Percentage of drug release in the sample ([1]; pH 6.0, 0 h): 14.32%
Percentage of drug release in the sample ([1]; pH 6.0, 1 h): 96.12%
Percentage of drug release in the sample ([1]; pH 6.0, 2 h): 96.75%
Percentage of drug release in the sample ([1]; pH 6.0, 3 h): 98.52%
Percentage of drug release in the sample ([1]; pH 6.0, 4 h): 98.45%
Percentage of drug release in the sample ([1]; pH 6.0, 5 h): 98.92%
Percentage of drug release in the sample ([1]; pH 6.0, 6 h): 99.15%
Percentage of drug release in the sample ([1]; pH 7.0, 0 h): 16.59%
Percentage of drug release in the sample ([1]; pH 7.0, 1 h): 98.32%
Percentage of drug release in the sample ([1]; pH 7.0, 2 h): 98.45%
Percentage of drug release in the sample ([1]; pH 7.0, 3 h): 99.12%
Percentage of drug release in the sample ([1]; pH 7.0, 4 h): 99.12%
Percentage of drug release in the sample ([1]; pH 7.0, 5 h): 99.87%
Percentage of drug release in the sample ([1]; pH 7.0, 6 h): 99.47%
speed of enzyme digestion [1]: quickly enzymatically digested

B1: FDA018-LE12 (antibody, human IgG1, kappa, V domains shown)
VH: QVQLQQSGSELKKPGASVKVSCKASGYTFTNYGMNWVKQAPGQGLKWMGWINTYTGEPTYTDDFKGRFAFSLDTSVSTAYLQISSLKADDTAVYFCARGGFGSSYWYFDVWGQGSLVTVSS
VL: DIQLTQSPSSLSASVGDRVSITCKASQDVSIAVAWYQQKPGKAPKLLIYSASYRYTGVPDRFSGSGSGTDFTLTISSLQPEDFAVYYCQQHYITPLTFGAGTKVEIKR
modifications: linker-drug LE12 (Dxd payload) coupled to cysteine sulfhydryl groups after reduction of the interchain disulfide bonds; DAR 3.90 for the whole antibody; sites not stated
IC50 (nM), in vitro killing activity, BXPC3 Cell [2]: 0.68 nM
IC50 (nM), in vitro killing activity, MDA-MB-468 Cell [2]: 1.03 nM
IC50 (nM), in vitro killing activity, NCI-N87 Cell [2]: 1.12 nM

B2: FDA018-LE13 (antibody, human IgG1, kappa, V domains shown)
VH: QVQLQQSGSELKKPGASVKVSCKASGYTFTNYGMNWVKQAPGQGLKWMGWINTYTGEPTYTDDFKGRFAFSLDTSVSTAYLQISSLKADDTAVYFCARGGFGSSYWYFDVWGQGSLVTVSS
VL: DIQLTQSPSSLSASVGDRVSITCKASQDVSIAVAWYQQKPGKAPKLLIYSASYRYTGVPDRFSGSGSGTDFTLTISSLQPEDFAVYYCQQHYITPLTFGAGTKVEIKR
modifications: linker-drug LE13 coupled to cysteine sulfhydryl groups after reduction of the interchain disulfide bonds; DAR 4.10 for the whole antibody; sites not stated
IC50 (nM), in vitro killing activity, BXPC3 Cell [2]: 1.23 nM
IC50 (nM), in vitro killing activity, MDA-MB-468 Cell [2]: 2 nM
IC50 (nM), in vitro killing activity, NCI-N87 Cell [2]: 2.34 nM

B3: FDA018-LE20 (antibody, human IgG1, kappa, V domains shown)
VH: QVQLQQSGSELKKPGASVKVSCKASGYTFTNYGMNWVKQAPGQGLKWMGWINTYTGEPTYTDDFKGRFAFSLDTSVSTAYLQISSLKADDTAVYFCARGGFGSSYWYFDVWGQGSLVTVSS
VL: DIQLTQSPSSLSASVGDRVSITCKASQDVSIAVAWYQQKPGKAPKLLIYSASYRYTGVPDRFSGSGSGTDFTLTISSLQPEDFAVYYCQQHYITPLTFGAGTKVEIKR
modifications: linker-drug LE20 coupled to cysteine sulfhydryl groups after reduction of the interchain disulfide bonds; DAR 3.88 for the whole antibody; sites not stated
IC50 (nM), in vitro killing activity, NCI-N87 Cell [2]: 1.15 nM

B4: FDA018-GGFG-Dxd (antibody, human IgG1, kappa, V domains shown)
VH: QVQLQQSGSELKKPGASVKVSCKASGYTFTNYGMNWVKQAPGQGLKWMGWINTYTGEPTYTDDFKGRFAFSLDTSVSTAYLQISSLKADDTAVYFCARGGFGSSYWYFDVWGQGSLVTVSS
VL: DIQLTQSPSSLSASVGDRVSITCKASQDVSIAVAWYQQKPGKAPKLLIYSASYRYTGVPDRFSGSGSGTDFTLTISSLQPEDFAVYYCQQHYITPLTFGAGTKVEIKR
modifications: linker-drug GGFG-Dxd coupled to cysteine sulfhydryl groups after reduction of the interchain disulfide bonds; DAR 4.03 for the whole antibody; sites not stated
IC50 (nM), in vitro killing activity, BXPC3 Cell [2]: 0.61 nM
IC50 (nM), in vitro killing activity, MDA-MB-468 Cell [2]: 1.2 nM
IC50 (nM), in vitro killing activity, NCI-N87 Cell [2]: 1.1 nM

B5: FDA018-LE15 (antibody, human IgG1, kappa, V domains shown)
VH: QVQLQQSGSELKKPGASVKVSCKASGYTFTNYGMNWVKQAPGQGLKWMGWINTYTGEPTYTDDFKGRFAFSLDTSVSTAYLQISSLKADDTAVYFCARGGFGSSYWYFDVWGQGSLVTVSS
VL: DIQLTQSPSSLSASVGDRVSITCKASQDVSIAVAWYQQKPGKAPKLLIYSASYRYTGVPDRFSGSGSGTDFTLTISSLQPEDFAVYYCQQHYITPLTFGAGTKVEIKR
modifications: linker-drug LE15 coupled to cysteine sulfhydryl groups after reduction of the interchain disulfide bonds; DAR 4.12 for the whole antibody; sites not stated
IC50 (nM), in vitro killing activity, BXPC3 Cell [2]: 0.96 nM
IC50 (nM), in vitro killing activity, MDA-MB-468 Cell [2]: 0.93 nM
IC50 (nM), in vitro killing activity, NCI-N87 Cell [2]: 0.98 nM
